Data reported in article PMC7688903 (Frontiers in Microbiology, 2020).
Entries after “also recorded” stand apart in the source; their conditions may differ. Where no end group is shown, it is not given here. [ ]: non-standard residue; d: D form. 2Thi = N[C@@H](Cc1cccs1)C(=O)O; Aib = CC(C)(N)C(=O)O

Columns and labels:
[1] = plasma from healthy volunteers; details: human, 37°C, up to 36 h
[2] = tested on: Trypsin; experiment: trypsin in 0.1 M NH4HCO3 buffer (pH 8.2); details: 37°C, up to 24 h

Row | Substance | fragment found [1] | fragment found [2]
1 | KRLFKKLLKYLRKF | (R) LFKKLLKYLRKF 3–14, major, 12 h; also recorded: (K) RLFKKLLKYLRKF 2–14, major, 12 h | (R) LFK (K) 3–5, major, 18 h; also recorded: (K) LLK (Y) 7–9, major, 18 h; also recorded: (K) YLR (K) 10–12, major, 18 h; also recorded: (K) KLLK (Y) 6–9, major, 18 h; also recorded: (R) LFKK (L) 3–6, major, 18 h
2 | [Aib]RLFKKLLKYLRK[2Thi] | (R) LFKKLLKYLRKThi 3–14, major, 12 h | (K) KLLK (Y) 6–9, major, 18 h; also recorded: (R) LFKK (L) 3–6, major, 18 h; also recorded: (K) LLK (Y) 7–9, major, 18 h; also recorded: (K) YLR (K) 10–12, major, 18 h; also recorded: (R) LFK (K) 3–5, major, 18 h
3 | RRIFKRLFKYLRRF | (R) IFKRLFKYLRRF 3–14, major, 12 h; also recorded: (R) RIFKRLFKYLRRF 2–14, major, 12 h | (R) RF 13–14, major, 18 h; also recorded: (K) YLRR (F) 10–13, major, 18 h; also recorded: (R) F 14, major, 18 h; also recorded: (K) YLR (R) 10–12, major, 18 h
4 | HorRLFKKLLKYLRKThi | (R) LFKKLLKYLRKThi 3–14, major, 12 h; also recorded: (Hor) RLFKKLLKYLRKThi 2–14, major, 12 h | (K) KLLK (Y) 6–9, major, 18 h; also recorded: (R) LFKK (L) 3–6, major, 18 h; also recorded: (K) LLK (Y) 7–9, major, 18 h; also recorded: (K) YLR (K) 10–12, major, 18 h; also recorded: (R) LFK (K) 3–5, major, 18 h
5 | DapHorLFDapDapLLDabYLHorDabThi | (Dap) HorLFDapDapLLDabYLHorDabThi 2–14, major, 12 h | (Dap) HorLFDap (Dap) 2–5, major, 18 h; also recorded: DapHorLFDapDapLLDab (Y) 1–9, major, 18 h; also recorded: DapHorLFDapDapLLDabYLHor (Dab) 1–12, major, 18 h; also recorded: (Dap) HorLFDapDapLLDabYLHorDabThi 2–14, major, 18 h
6 | KRLFKKLLKYLRK[2Thi] | (L) FKKLLKYLRKThi 4–14, major, 12 h | (K) Thi 14, major, 18 h; also recorded: (K) KLLK (Y) 6–9, major, 18 h; also recorded: (R)LFKK (L) 3–6, major, 18 h; also recorded: (K) LLK (Y) 7–9, major, 18 h; also recorded: (K) YLR (K) 10–12, major, 18 h; also recorded: (R) LFK (K) 3–5, major, 18 h
